Source: US20180000085A1, “USE OF PICOLINAMIDE COMPOUNDS WITH FUNGICIDAL ACTIVITY” (DOW AGROSCIENCES LLC, priority 2014, published 2018)

How the values were obtained:
[1] = tested on: Puccinia triticina; experiment: Wheat brown rust (PUCCRT) disease control on wheat seedlings; assay type: in vivo; design: key to PUCCRT 3DC, HV activity at 100 ppm (% control rating) / PUCCRT disease control, 3DC / PUCCRT 1DP disease control rating, HV activity / PUCCRT 3DC disease control rating, HV activity / PUCCRT 3DC, LV activity at 125.1 g/H (% Control rating) / PUCCRT 1DP, LV activity at 125.1 g/H (% Control rating) / PUCCRT 3DC disease control rating, LV activity at 125.1 g/H / PUCCRT 1DP disease control rating, LV activity at 125.1 g/H / PUCCRT 3DC disease control rating, HV activity at 100 ppm / PUCCRT 1DP disease control rating, HV activity at 100 ppm / HV activity at 100 ppm PUCCRT 3DC (disease control rating) / LV activity at 125.1 g/H PUCCRT 1DP (disease control rating) / LV activity at 125.1 g/H PUCCRT 3DC (disease control rating): A: > 80; B: ≤ 80; C: Not Tested; D: No Activity Observed in the Reported Assay; conditions: HV application at 100 ppm, wheat brown rust; for PUCCRT 1DP disease control rating, HV activity: 1 Day Protectant; for PUCCRT 3DC disease control rating, HV activity: 3 Day Curative
[2] = tested on: Zymoseptoria tritici; experiment: Leaf blotch of wheat (SEPTTR) disease control on wheat seedlings; assay type: in vivo; design: key to SEPTTR 1DP, HV activity at 100 ppm (% control rating) / SEPTTR 3DC, HV activity at 100 ppm (% control rating) / SEPTTR disease control, 1DP / SEPTTR disease control, 3DC / SEPTTR 1DP disease control rating, HV activity / SEPTTR 3DC disease control rating, HV activity / SEPTTR 3DC, LV activity at 125.1 g/H (% Control rating) / SEPTTR 1DP, LV activity at 125.1 g/H (% Control rating) / SEPTTR 1DP disease control rating, LV activity at 125.1 g/H / SEPTTR 3DC disease control rating, LV activity at 125.1 g/H / SEPTTR 3DC disease control rating, HV activity at 100 ppm / SEPTTR 1DP disease control rating, HV activity at 100 ppm / HV activity at 100 ppm SEPTTR 3DC (disease control rating) / HV activity at 100 ppm SEPTTR 1DP (disease control rating) / LV activity at 125.1 g/H SEPTTR 1DP (disease control rating) / LV activity at 125.1 g/H SEPTTR 3DC (disease control rating): A: > 80; B: ≤ 80; C: Not Tested; D: No Activity Observed in the Reported Assay; conditions: HV application at 100 ppm, wheat leaf blotch; for SEPTTR 1DP disease control rating, HV activity: 1 Day Protectant; for SEPTTR 3DC disease control rating, HV activity: 3 Day Curative

Structure (SMILES): COc1ccnc(C(=O)N[C@@H](C)C(=O)O[C@@H](C)[C@H](Oc2ccc(Cl)cc2Cl)C(C)C)c1O [Cmpd 358]
- PUCCRT 1DP disease control rating, HV activity [1]: B (≤ 80)
- PUCCRT 3DC disease control rating, HV activity [1]: B (≤ 80)
- SEPTTR 1DP disease control rating, HV activity [2]: B (≤ 80)
- SEPTTR 3DC disease control rating, HV activity [2]: B (≤ 80)

Structure (SMILES): COc1ccnc(C(=O)N[C@@H](C)C(=O)O[C@@H](C)[C@H](Oc2ccc(Cl)cc2)C(C)C)c1O [Cmpd 359]
- PUCCRT 1DP disease control rating, HV activity [1]: A (> 80)
- PUCCRT 3DC disease control rating, HV activity [1]: A (> 80)
- SEPTTR 1DP disease control rating, HV activity [2]: A (> 80)
- SEPTTR 3DC disease control rating, HV activity [2]: A (> 80)

Structure (SMILES): CCC(CC)C(Oc1ccc(Cl)cc1Cl)C(C)OC(=O)C(C)NC(=O)c1nccc(OC)c1O (stereo not shown) [Cmpd 381]
- PUCCRT 1DP disease control rating, HV activity [1]: D
- PUCCRT 3DC disease control rating, HV activity [1]: D
- SEPTTR 1DP disease control rating, HV activity [2]: D
- SEPTTR 3DC disease control rating, HV activity [2]: D

Structure (SMILES): CCC(CC)C(Oc1cc(F)ccc1F)C(C)OC(=O)C(C)NC(=O)c1nccc(OC)c1O (stereo not shown) [Cmpd 382]
- PUCCRT 1DP disease control rating, HV activity [1]: A (> 80)
- PUCCRT 3DC disease control rating, HV activity [1]: A (> 80)
- SEPTTR 1DP disease control rating, HV activity [2]: D
- SEPTTR 3DC disease control rating, HV activity [2]: B (≤ 80)

Structure (SMILES): CCC(CC)C(Oc1cc(F)cc(Cl)c1)C(C)OC(=O)C(C)NC(=O)c1nccc(OC)c1O (stereo not shown) [Cmpd 383]
- PUCCRT 1DP disease control rating, HV activity [1]: A (> 80)
- PUCCRT 3DC disease control rating, HV activity [1]: A (> 80)
- SEPTTR 1DP disease control rating, HV activity [2]: B (≤ 80)
- SEPTTR 3DC disease control rating, HV activity [2]: A (> 80)

Structure (SMILES): CCC(CC)C(Oc1ccccc1Cl)C(C)OC(=O)C(C)NC(=O)c1nccc(OC)c1O (stereo not shown) [Cmpd 384]
- PUCCRT 1DP disease control rating, HV activity [1]: A (> 80)
- PUCCRT 3DC disease control rating, HV activity [1]: A (> 80)
- SEPTTR 1DP disease control rating, HV activity [2]: B (≤ 80)
- SEPTTR 3DC disease control rating, HV activity [2]: A (> 80)

Structure (SMILES): CCC(CC)C(Oc1ccc(C(F)(F)F)cc1)C(C)OC(=O)C(C)NC(=O)c1nccc(OC)c1O (stereo not shown) [Cmpd 385]
- PUCCRT 1DP disease control rating, HV activity [1]: B (≤ 80)
- PUCCRT 3DC disease control rating, HV activity [1]: A (> 80)
- SEPTTR 1DP disease control rating, HV activity [2]: D
- SEPTTR 3DC disease control rating, HV activity [2]: D

Structure (SMILES): CCC(CC)C(Oc1cccc(-c2ccccc2)c1)C(C)OC(=O)C(C)NC(=O)c1nccc(OC)c1O (stereo not shown) [Cmpd 386]
- PUCCRT 1DP disease control rating, HV activity [1]: B (≤ 80)
- PUCCRT 3DC disease control rating, HV activity [1]: B (≤ 80)
- SEPTTR 1DP disease control rating, HV activity [2]: D
- SEPTTR 3DC disease control rating, HV activity [2]: D

Structure (SMILES): CCC(CC)C(Oc1ccc(-c2ccccc2)cc1)C(C)OC(=O)C(C)NC(=O)c1nccc(OC)c1O (stereo not shown) [Cmpd 387]
- PUCCRT 1DP disease control rating, HV activity [1]: B (≤ 80)
- PUCCRT 3DC disease control rating, HV activity [1]: D
- SEPTTR 1DP disease control rating, HV activity [2]: D
- SEPTTR 3DC disease control rating, HV activity [2]: D

Structure (SMILES): COc1ccnc(C(=O)NC(C)C(=O)OC(C)C(Oc2ccc(-c3ccccc3)cc2)C(C)C)c1O (stereo not shown) [Cmpd 388]
- PUCCRT 1DP disease control rating, HV activity [1]: A (> 80)
- PUCCRT 3DC disease control rating, HV activity [1]: B (≤ 80)
- SEPTTR 1DP disease control rating, HV activity [2]: A (> 80)
- SEPTTR 3DC disease control rating, HV activity [2]: B (≤ 80)

Structure (SMILES): COc1ccnc(C(=O)NC(C)C(=O)OC(C)C(Oc2cccc(-c3ccccc3)c2)C(C)C)c1O (stereo not shown) [Cmpd 389]
- PUCCRT 1DP disease control rating, HV activity [1]: A (> 80)
- PUCCRT 3DC disease control rating, HV activity [1]: D
- SEPTTR 1DP disease control rating, HV activity [2]: B (≤ 80)
- SEPTTR 3DC disease control rating, HV activity [2]: B (≤ 80)

Structure (SMILES): COc1ccnc(C(=O)NC(C)C(=O)OC(C)C(Oc2cccc(F)c2)C(C)C)c1O (stereo not shown) [Cmpd 390]
- PUCCRT 1DP disease control rating, HV activity [1]: A (> 80)
- PUCCRT 3DC disease control rating, HV activity [1]: A (> 80)
- SEPTTR 1DP disease control rating, HV activity [2]: B (≤ 80)
- SEPTTR 3DC disease control rating, HV activity [2]: A (> 80)

Structure (SMILES): COc1ccnc(C(=O)NC(C)C(=O)OC(C)C(Oc2ccc(F)cc2)C(C)C)c1O (stereo not shown) [Cmpd 391]
- PUCCRT 1DP disease control rating, HV activity [1]: A (> 80)
- PUCCRT 3DC disease control rating, HV activity [1]: A (> 80)
- SEPTTR 1DP disease control rating, HV activity [2]: A (> 80)
- SEPTTR 3DC disease control rating, HV activity [2]: A (> 80)
